Experimental data reported in patent US11022604B2, “Dock derived compound against laminin receptor (37 LR) and uses thereof” (Purdue Research Foundation, priority 2017, dated 2021).
Each block holds one molecule with its values, some of them ahead of it.

What was measured:
Format in all cases: cell-based
[1] = test system: endothelial vessel formation in vitro (tube formation); assay: Angiogenesis tube formation assay (derivatives); conditions: 30 uM, 7 hour incubation
Procedure: FIGS. 28A-28F Representative images of tube formation. 7 hour incubation period with respective compounds: FIG. 28A, DMSO; FIG. 28B DBGII-3, 30 uM; FIG. 28C, EGCG, 30 uM; FIG. 28 D, DBGII-5, 30 uM, FIG. 28E, C3, 30 uM; FIG. 28 F, DBGII-9, 30 uM.
An angiogenesis tube formation assay was used to characterize the impact of compounds against endothelial vessel formation in vitro (i.e., tube formation).

[2] = test system: PC3 prostate cancer cell line; assay: Cell Titer Glo cell viability assay
From the text: In this series of cell viability experiments, we used the highly sensitive Cell Titer Glo reagents from Promega in PC3 prostate cancer cell line. We compared the parental compound C3 effect on reducing cell viability with the best derivative compound, DBG-02-09.

[3] = test system: PC3 prostate cancer cell lines; assay: CCK8 cell viability screen of derivatives; conditions: PC3, CCK8, day three
Procedure: FIGS. 22A-22B. Screen of all the derivatives made in Example 17 in CCK8 cell viability assay with PC3 prostate cancer cell lines at day 3 (FIG. 22A) and day 5 (FIG. 22B).
FIG. 23. All derivatives made in Example 17 are tested for cell inhibition percentage at day 3.
CCK8 cell viability assay with PC3 prostate cancer cell lines is conducted and cell viability on day 3, day 5 are examined, see FIGS. 22A-22B. Additionally, the cell inhibition percentage for compounds DBG1-191, 1-200, 02-09, 2-14, among others were further characterized in CCK8 assay against PC3.

[4] = test system: PC-3 cells; assay: PC-3 cell viability response to recombinant PEDF (CCK-8); conditions: 48 hours
Procedure: FIG. 13. PC-3 Cell Viability Response To Recombinant PEDF PC-3 cells were treated with 0.1 to 0.6 μM rPEDF for 48 hours and cell viability was measured using the CCK-8 assay (n=3, mean±SEM). A one-way ANOVA was used for statistical analysis (n.s. p=0.11) however the linear trend was significant (post test for linear trend, p<0.05).
Recombinant PEDF (BioProductsMD) was resuspended in PEDF Buffer (0.2 M NaCl, 20 mM sodium phosphate, and 1 mM DTT; ph 6.4). 1,500 cells per well were seeded in a clear 96-well plate in RPMI-1640 with 1% anti-anti and 10% FBS and allowed to grow overnight. A 0-hour recording was taken using CCK-8 and compared to a 48-hour reading after incubating PC-3 cells with recombinant PEDF (0.1 μM to […]) in RPMI-1640 with 1% anti-anti and 1% FBS. […] The adenovirus was administered intravenously (2×10^8 pfu/i.v.) 3 days following subcutaneous TC2-Ras cell implantation (10^4 or 10^5, without mAR (−mAR control) or with mAR (+mAR) in C57/BL6 male mice. Mice were injected intraperitoneally with 150 mg/kg Luciferin (10-20 min incubation) followed by a 5 min signal acquisition using an IVIS 100 imager (Caliper/PerkinElmer, Downers Grove, Ill.) and analyzed with LivingImage 3.1 software (Caliper/PerkinElmer), with signals reported as photons per second per […] per steridian (p/sec/cm^2/sr). Statistics. Statistical analysis was performed using GraphPad Prism 6. […]

Molecule: O=C(c1ccncc1Oc1ccccc1)N1CCN(C2c3ccccc3-c3ccccc32)CC1 [DBGII-03]
tube formation [1]: Thinning of tubes formed

Molecule: O=C(c1ccccc1)N1CCN(C2c3ccccc3-c3ccccc32)CC1 [DBGII-05]
tube formation [1]: Thinning of tubes formed

IC50 ([2]; Homo sapiens, PC-3, PC3 cells): 7.6 ± 0.52 µM
Molecule: CN(C)CCOc1ccccc1C(=O)N1CCN(C2c3ccccc3-c3ccccc32)CC1 [DBGII-09]
reduction of IC50 relative to parental compound C3 ([2]; PC3 cells): 2.2 fold
cell inhibition percentage (rank among derivatives) [3]: highest inhibition
tube formation [1]: Thinning of tubes formed

B1: recombinant PEDF: Recombinant pigment epithelium-derived factor (BioProductsMD), secreted glycoprotein (protein, UniProt P36955 20-418, looked up)
Pigment epithelium-derived …: QNPASPPEEGSPDPDSTGALVEEEDPFFKVPVNKLAAAVSNFGYDLYRVRSSTSPTTNVLLSPLSVATALSALSLGAEQRTESIIHRALYYDLISSPDIHGTYKELLDTVTAPQKNLKSASRIVFEKKLRIKSSFVAPLEKSYGTRPRVLTGNPRLDLQEINNWVQAQMKGKLARSTKEIPDEISILLLGVAHFKGQWVTKFDSRKTSLEDFYLDEERTVRVPMMSDPKAVLRYGLDSDLSCKIAQLPLTGSMSIIFFLPLKVTQNLTLIEESLTSEFIHDIDRELKTVQAVLTVPKLKLSYEGEVTKSLQEMKLQSLFDSPDFSKITGKPIKLTQVEHRAGFEWNEDGAGTTPSPGLQPAHLTFPLDYHLNQPFIFVLRDTDTGALLFIGKILDPRGP
dose/response relationship for survival of PC-3 cells [4]: unable to demonstrate a significant dose/response relationship
